Reference: patent publication US8580918B2, “Peptidic GLP-2 agonists” (Ferring B.V., priority 2009, dated 2013)
Where a SMILES comes first, the peptide text is derived from it. [ ]: non-standard residue; d: D form. The star is where a group is joined. X2 = NC(=O)COCC(=O)NCCCOCCOCCOCCCN*; NH(4-picolyl) = c1cc(CN*)ccn1; PEG4 = NCCOCCOCCOCCOCCC(=O)O; Nle = CCCC[C@H](N)C(=O)O; NHBn = c1ccc(CN*)cc1; NHiBu = CC(C)CN*

assay: Pharmacokinetics in rats after intravenous bolus injection (systemic clearance); type: in vivo; settings: rat, plasma, 0.2 mg FB/kg, adult male Sprague-Dawley rats, i.v. bolus, dose 0.20 mg FB/kg, read-out: CL (ml/kg/min) Average
Summary of the method: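 Systemic clearance from noncompartmental analysis as dose per kg over trapezoidal AUC extrapolated to infinity, mean and SD across animals. Plasma (K2EDTA) levels by LC/MS/MS after single IV jugular-vein bolus, 0.1-1.0 mg/kg, in 3-4 cannulated male Sprague-Dawley rats.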

| SMILES | clearance [mL/kg/min] |
| --- | --- |
| CCCC[C@H](NC(=O)[C@H](CCC(=O)O)NC(=O)[C@H](CC(=O)O)NC(=O)[C@H](CO)NC(=O)[C@H](Cc1ccccc1)NC(=O)[C@H](CO)NC(=O)CNC(=O)[C@H](CC(=O)O)NC(=O)CNC(=O)[C@@H](N)Cc1c[nH]cn1)C(=O)N[C@H](Cc1ccccc1)C(=O)N[C@H](C(=O)N[C@H](C(=O)N[C@@H](CC(C)C)C(=O)N[C@@H](CC(=O)O)C(=O)N[C@@H](CC(C)C)C(=O)N[C@@H](CC(C)C)C(=O)N[C@@H](C)C(=O)N[C@H](C(=O)N[C@@H](CCCNC(=N)N)C(=O)N[C@@H](CC(=O)O)C(=O)N[C@@H](Cc1ccccc1)C(=O)N[C@H](C(=O)N[C@@H](CC(N)=O)C(=O)N[C@@H](Cc1c[nH]c2ccccc12)C(=O)N[C@@H](CC(C)C)C(=O)N[C@H](C(=O)N[C@@H](CCC(N)=O)C(=O)N[C@H](C(=O)N[C@@H](CCCCN)C(N)=O)[C@@H](C)O)[C@@H](C)CC)[C@@H](C)CC)[C@@H](C)O)[C@@H](C)CC)[C@@H](C)O [Compound 52, [Gly2,Nle10,D-Phe11,Leu16,Thr19] hGLP-2(1-30)-NH2] (H-HGDGSFSDE[Nle][dF]TILDLLATRDFINWLIQTK-NH2) | 0.49 |
| CCCC[C@H](NC(=O)[C@H](CCC(=O)O)NC(=O)[C@H](CC(=O)O)NC(=O)[C@H](CO)NC(=O)[C@H](Cc1ccccc1)NC(=O)[C@H](CO)NC(=O)CNC(=O)[C@H](CC(=O)O)NC(=O)CNC(=O)[C@@H](N)Cc1cnc[nH]1)C(=O)N[C@H](Cc1ccccc1)C(=O)N[C@H](C(=O)N[C@H](C(=O)N[C@@H](CC(C)C)C(=O)N[C@@H](CC(=O)O)C(=O)N[C@@H](CC(C)C)C(=O)N[C@@H](CC(C)C)C(=O)N[C@@H](C)C(=O)N[C@@H](C)C(=O)N[C@@H](CCCNC(=N)N)C(=O)N[C@@H](CC(=O)O)C(=O)N[C@@H](Cc1ccccc1)C(=O)N[C@H](C(=O)N[C@@H](CC(N)=O)C(=O)N[C@@H](Cc1c[nH]c2ccccc12)C(=O)N[C@@H](CC(C)C)C(=O)N[C@H](C(=O)N[C@@H](CCC(N)=O)C(=O)N[C@H](C(=O)N[C@@H](CCCCN)C(=O)N[C@H](C(=O)N[C@H](C(=O)N[C@@H](CC(=O)O)C(=O)NCC)[C@@H](C)O)[C@@H](C)CC)[C@@H](C)O)[C@@H](C)CC)[C@@H](C)CC)[C@@H](C)CC)[C@@H](C)O [Compound 53, [Gly2,Nle10,D-Phe11,Leu16] hGLP-2(1-33)-NHEt] (H-HGDGSFSDE[Nle][dF]TILDLLAARDFINWLIQTKITD-NHEt) | 0.19 |
| CCCC[C@H](NC(=O)[C@H](CCC(=O)O)NC(=O)[C@H](CC(=O)O)NC(=O)[C@H](CO)NC(=O)[C@H](Cc1ccccc1)NC(=O)[C@H](CO)NC(=O)CNC(=O)[C@H](CC(=O)O)NC(=O)CNC(=O)[C@@H](N)Cc1c[nH]cn1)C(=O)N[C@H](Cc1ccccc1)C(=O)N[C@H](C(=O)N[C@H](C(=O)N[C@@H](CC(C)C)C(=O)N[C@@H](CC(=O)O)C(=O)N[C@@H](CC(C)C)C(=O)N[C@@H](CC(C)C)C(=O)N[C@@H](C)C(=O)N[C@@H](C)C(=O)N[C@@H](CCCNC(=N)N)C(=O)N[C@@H](CC(=O)O)C(=O)N[C@@H](Cc1ccccc1)C(=O)N[C@H](C(=O)N[C@@H](CC(N)=O)C(=O)N[C@@H](Cc1c[nH]c2ccccc12)C(=O)N[C@@H](CC(C)C)C(=O)N[C@H](C(=O)N[C@@H](CCC(N)=O)C(=O)N[C@H](C(=O)N[C@@H](CCCCN)C(=O)N[C@H](C(=O)N[C@H](C(=O)N[C@@H](CC(=O)O)C(=O)NCc1ccncc1)[C@@H](C)O)[C@@H](C)CC)[C@@H](C)O)[C@@H](C)CC)[C@@H](C)CC)[C@@H](C)CC)[C@@H](C)O [Compound 54, [Gly2,Nle10,D-Phe11,Leu16] hGLP-2(1-33)-NH-4-Pic] (H-HGDGSFSDE[Nle][dF]TILDLLAARDFINWLIQTKITD-{NH(4-picolyl)}) | 0.27 |

Other lines, results leading:

| clearance [mL/kg/min] | SMILES |
| --- | --- |
| 0.23 | CCCC[C@H](NC(=O)[C@H](CCC(=O)O)NC(=O)[C@H](CC(=O)O)NC(=O)[C@H](CO)NC(=O)[C@H](Cc1ccccc1)NC(=O)[C@H](CO)NC(=O)CNC(=O)[C@H](CC(=O)O)NC(=O)CNC(=O)[C@@H](N)Cc1cnc[nH]1)C(=O)N[C@H](Cc1ccccc1)C(=O)N[C@H](C(=O)N[C@H](C(=O)N[C@@H](CC(C)C)C(=O)N[C@@H](CC(=O)O)C(=O)N[C@@H](CC(C)C)C(=O)N[C@@H](CC(C)C)C(=O)N[C@@H](C)C(=O)N[C@@H](C)C(=O)N[C@@H](CCCNC(=N)N)C(=O)N[C@@H](CC(=O)O)C(=O)N[C@@H](Cc1ccccc1)C(=O)N[C@H](C(=O)N[C@@H](CC(N)=O)C(=O)N[C@@H](Cc1c[nH]c2ccccc12)C(=O)N[C@@H](CC(C)C)C(=O)N[C@H](C(=O)N[C@@H](CCC(N)=O)C(=O)N[C@H](C(=O)N[C@@H](CCCCN)C(=O)N[C@H](C(=O)N[C@H](C(=O)N[C@@H](CC(=O)O)C(=O)NCCOCCOCCOCCOCCC(N)=O)[C@@H](C)O)[C@@H](C)CC)[C@@H](C)O)[C@@H](C)CC)[C@@H](C)CC)[C@@H](C)CC)[C@@H](C)O [Compound 55, [Gly2,Nle10,D-Phe11,Leu16] hGLP-2(1-33)-NH—((CH2)2O)4—(CH2)2—C(O)—NH2] (H-HGDGSFSDE[Nle][dF]TILDLLAARDFINWLIQTKITD[PEG4]-NH2) |
| 0.28 | CCCC[C@H](NC(=O)[C@H](CCC(=O)O)NC(=O)[C@H](CC(=O)O)NC(=O)[C@H](CO)NC(=O)[C@H](Cc1ccccc1)NC(=O)[C@H](CO)NC(=O)CNC(=O)[C@H](CC(=O)O)NC(=O)CNC(=O)[C@@H](N)Cc1c[nH]cn1)C(=O)N[C@H](Cc1ccccc1)C(=O)N[C@H](C(=O)N[C@H](C(=O)N[C@@H](CC(C)C)C(=O)N[C@@H](CC(=O)O)C(=O)N[C@@H](CC(C)C)C(=O)N[C@@H](CC(C)C)C(=O)N[C@@H](C)C(=O)N[C@@H](C)C(=O)N[C@@H](CCCNC(=N)N)C(=O)N[C@@H](CC(=O)O)C(=O)N[C@@H](Cc1ccccc1)C(=O)N[C@H](C(=O)N[C@@H](CC(N)=O)C(=O)N[C@@H](Cc1c[nH]c2ccccc12)C(=O)N[C@@H](CC(C)C)C(=O)N[C@H](C(=O)N[C@@H](CCC(N)=O)C(=O)N[C@H](C(=O)N[C@@H](CCCCN)C(=O)N[C@H](C(=O)N[C@H](C(=O)N[C@@H](CC(=O)O)C(=O)NCCCOCCOCCOCCCNC(=O)COCC(N)=O)[C@@H](C)O)[C@@H](C)CC)[C@@H](C)O)[C@@H](C)CC)[C@@H](C)CC)[C@@H](C)CC)[C@@H](C)O [Compound 56, [Gly2,Nle10,D-Phe11,Leu16] hGLP-2(1-33)-NH—CH2—((CH2)2O)3—(CH2)3—NHC(O)—CH2—O—CH2—C(O)—NH2] (H-HGDGSFSDE[Nle][dF]TILDLLAARDFINWLIQTKITD-X2) |
| 0.17 | CCCC[C@H](NC(=O)[C@H](CCC(=O)O)NC(=O)[C@H](CC(=O)O)NC(=O)[C@H](CO)NC(=O)[C@H](Cc1ccccc1)NC(=O)[C@H](CO)NC(=O)CNC(=O)[C@H](CC(=O)O)NC(=O)CNC(=O)[C@@H](N)Cc1c[nH]cn1)C(=O)N[C@H](Cc1ccccc1)C(=O)N[C@H](C(=O)N[C@H](C(=O)N[C@@H](CC(C)C)C(=O)N[C@@H](CC(=O)O)C(=O)N[C@@H](CC(C)C)C(=O)N[C@@H](CC(C)C)C(=O)N[C@@H](C)C(=O)N[C@@H](C)C(=O)N[C@@H](CCCNC(=N)N)C(=O)N[C@@H](CC(=O)O)C(=O)N[C@@H](Cc1ccccc1)C(=O)N[C@H](C(=O)N[C@@H](CC(N)=O)C(=O)N[C@@H](Cc1c[nH]c2ccccc12)C(=O)N[C@@H](CC(C)C)C(=O)N[C@H](C(=O)N[C@@H](CCC(N)=O)C(=O)N[C@H](C(=O)N[C@@H](CCCCN)C(=O)N[C@H](C(=O)N[C@H](C(=O)N[C@@H](CC(=O)O)C(=O)NCC(C)C)[C@@H](C)O)[C@@H](C)CC)[C@@H](C)O)[C@@H](C)CC)[C@@H](C)CC)[C@@H](C)CC)[C@@H](C)O [Compound 57, [Gly2,Nle10,D-Phe11,Leu16] hGLP-2(1-33)-NH-isobutyl] (H-HGDGSFSDE[Nle][dF]TILDLLAARDFINWLIQTKITD-NHiBu) |
| 0.1 | CCCC[C@H](NC(=O)[C@H](CCC(=O)O)NC(=O)[C@H](CC(=O)O)NC(=O)[C@H](CO)NC(=O)[C@H](Cc1ccccc1)NC(=O)[C@H](CO)NC(=O)CNC(=O)[C@H](CC(=O)O)NC(=O)CNC(=O)[C@@H](N)Cc1c[nH]cn1)C(=O)N[C@H](Cc1ccccc1)C(=O)N[C@H](C(=O)N[C@H](C(=O)N[C@@H](CC(C)C)C(=O)N[C@@H](CC(=O)O)C(=O)N[C@@H](CC(C)C)C(=O)N[C@@H](CC(C)C)C(=O)N[C@@H](C)C(=O)N[C@@H](C)C(=O)N[C@@H](CCCNC(=N)N)C(=O)N[C@@H](CC(=O)O)C(=O)N[C@@H](Cc1ccccc1)C(=O)N[C@H](C(=O)N[C@@H](CC(N)=O)C(=O)N[C@@H](Cc1c[nH]c2ccccc12)C(=O)N[C@@H](CC(C)C)C(=O)N[C@H](C(=O)N[C@@H](CCC(N)=O)C(=O)N[C@H](C(=O)N[C@@H](CCCCN)C(=O)N[C@H](C(=O)N[C@H](C(=O)N[C@@H](CC(=O)O)C(=O)NCc1ccccc1)[C@@H](C)O)[C@@H](C)CC)[C@@H](C)O)[C@@H](C)CC)[C@@H](C)CC)[C@@H](C)CC)[C@@H](C)O [Compound 58, [Gly2,Nle10,D-Phe11,Leu16] hGLP-2(1-33)-NH-Benzyl] (H-HGDGSFSDE[Nle][dF]TILDLLAARDFINWLIQTKITD-NHBn) |
| 0.22 | CCCC[C@H](NC(=O)[C@H](CCC(=O)O)NC(=O)[C@H](CC(=O)O)NC(=O)[C@H](CO)NC(=O)[C@H](Cc1ccccc1)NC(=O)[C@H](CO)NC(=O)CNC(=O)[C@H](CC(=O)O)NC(=O)CNC(=O)[C@@H](N)Cc1cnc[nH]1)C(=O)N[C@H](Cc1ccccc1)C(=O)N[C@H](C(=O)N[C@H](C(=O)N[C@@H](CC(C)C)C(=O)N[C@@H](CC(=O)O)C(=O)N[C@@H](CC(C)C)C(=O)N[C@@H](CC(C)C)C(=O)N[C@@H](C)C(=O)N[C@@H](C)C(=O)N[C@@H](CCCNC(=N)N)C(=O)N[C@@H](CC(=O)O)C(=O)N[C@@H](Cc1ccccc1)C(=O)N[C@H](C(=O)N[C@@H](CC(N)=O)C(=O)N[C@@H](Cc1c[nH]c2ccccc12)C(=O)N[C@@H](CC(C)C)C(=O)N[C@H](C(=O)N[C@@H](CCC(N)=O)C(=O)N[C@H](C(=O)N[C@@H](CCCCN)C(=O)N[C@H](C(=O)N[C@H](C(=O)N[C@@H](CC(=O)O)C(=O)O)[C@@H](C)O)[C@@H](C)CC)[C@@H](C)O)[C@@H](C)CC)[C@@H](C)CC)[C@@H](C)CC)[C@@H](C)O [Compound 59, [Gly2,Nle10,D-Phe11,Leu16] hGLP-2(1-33)-OH] (H-HGDGSFSDE[Nle][dF]TILDLLAARDFINWLIQTKITD-OH) |
